Measured values taken from article PMC6670175 (Virology Journal, 2019).
Values joined by “and” are separate entries in the source; they are usually repeats but may differ in a detail not shown here. Equal values may be shown once. Read-outs that look alike come from different tables or passages of the source. Ends that are not written are not given here.

Key:
[1] = test system: PRV Ea strain; type: cell-based, pseudorabies virus
[2] = test system: PK-15 cells
[3] = test system: PEDV YNKM strain; type: cell-based, porcine epidemic diarrhea virus; conditions: for residual infectivity: n = 3
[4] = test system: TGEV WH-1 strain; type: cell-based, transmissible gastroenteritis virus; conditions: for residual infectivity: n = 3
[5] = test system: RV TM-a strain; type: cell-based, rotavirus; conditions: n = 3
[6] = test system: PRV-HNXX; type: cell-based, pseudorabies virus; conditions: n = 3
[7] = test system: PRV-152 (modified Bartha strain); type: cell-based, pseudorabies virus; conditions: n = 3
[8] = test system: PRV-Ea; type: cell-based, pseudorabies virus
[9] = test system: PRV-Ea
[10] = test system: PRV-Ea; remark: listed apart in the source
[11] = test system: PRRSV YA isolate; type: cell-based, porcine reproductive and respiratory syndrome virus

Compound | antiviral activity against PRV (in words) [1] | residual infectivity ([1]; n = 3) | 50% toxic concentration (TC50) ([2]; 48 h) [µg/mL] | decrease in the residual infectivity [1] | residual infectivity [3] | residual infectivity [4] [%] | residual infectivity [5] | inhibitory activity against PRV HNXX (in words) [6] | inhibitory activity against PRV 152 (in words) [7] | inhibitory effect on PRV, post-infection (curative) [8] | inhibitory effect on PRV, pre-infection (prophylactic) [8] | inhibition of PRV particles (in words) [9] | 50% effective concentration (EC50) ([9]; 1 h) [µg/mL] | also measured
CC[C@H](C)[C@H](N)C(=O)N[C@@H](CC(C)C)C(=O)N1CCC[C@H]1C(=O)N[C@@H](Cc1c[nH]c2ccccc12)C(=O)N[C@@H](CCCCN)C(=O)N[C@@H](Cc1c[nH]c2ccccc12)C(=O)N1CCC[C@H]1C(=O)N[C@@H](Cc1c[nH]c2ccccc12)C(=O)N[C@@H](Cc1c[nH]c2ccccc12)C(=O)N1CCC[C@H]1C(=O)N[C@@H](Cc1c[nH]c2ccccc12)C(=O)N[C@@H](CCCNC(=N)N)C(=O)N[C@@H](CCCNC(=N)N)C(N)=O [indolicidin] | mild antiviral activity | 34.6% | 110.2 |  |  |  |  |  |  |  |  |  |  | 
FFHHIFRGIVHVGKTIHRLVTG [piscidin, piscidin 1] |  | around 2.3% |  | more than 30 folds | lower than 50% | 41.5 | 7.4% | displayed inhibitory activities | displayed inhibitory activities | No inhibitory effect | No inhibitory effect | inhibit most of the PRV particles |  | 50% toxic concentration (TC50) [2]: 65.2 µg/mL; 50% effective concentration (EC50) ([9]; n = 3): 0.23 µg/mL; brain pathology (H&E) ([10]; mouse, in vivo): no specific symptom; clinical signs, peptide alone ([10]; mouse, in vivo): remained asymptomatic; clinical symptoms versus PRV infected mice ([10]; mouse, in vivo): symptoms appeared later and not so severe; outcome after re-challenge ([10]; mouse, in vivo): all died; protection against PRV infection (in words) ([10]; mouse, in vivo): obviously protected; survival and behaviour after peptide alone ([10]; mouse, in vivo): All mice survived and behaved normally; survival rate of mice ([10]; mouse, in vivo): 90%; survival rates at the end of the experiment ([10]; mouse, in vivo): 30%; mice with severe neurological symptoms euthanized ([10]; n = 10): 6 and 5 and 7
FKCRRWQWRMKKLGAPSITCVRRAF [lactoferricin B] | mild antiviral activity |  |  |  |  | 54.1 |  |  |  |  |  |  |  | cytotoxic activity at maximum concentration [2]: did not exhibit obvious cytotoxic activity
GLFGVLAKVAAHVVPAIAEHF-NH2 (C-terminus assumed) [maculatin, maculatin 1.1] |  | 10.1% and 10.11% | 76.6 |  |  |  | 43.4% | displayed inhibitory activities | displayed inhibitory activities | No inhibitory effect | No inhibitory effect | inhibit most of the PRV particles | 1.09 | residual infectivity [1]: 0.0017%; activity against PEDV (in words) [3]: limited activity; activity against PRRSV (in words) [11]: limited activity; activity against TGEV (in words) [4]: limited activity
GLLSVLGSVAKHVLPHVVPVIAEHL-NH2 (C-terminus assumed) [caerin, caerin 1.1] |  | around 2.3% | 67.8 | more than 30 folds | 0.2% |  | lower than 50% | displayed inhibitory activities | displayed inhibitory activities | No inhibitory effect | No inhibitory effect | inhibit most of the PRV particles | 2.63 | residual infectivity ([11]; n = 3): 41.1%
